The subject of one test is production of IL8. The test is described as follows: Production of interleukin 8 induced in keratinocytes by PMA and calcium ionophore A23187 (ELISA). The settings on record: for Inhibitory activity % of molecules evaluated on the production of IL8 / inhibition at 3 µg/mL: 3 μg/mL, keratinocytes, 60 min pre-incubation, PMA 1 μM + A23187 0.1 μM, 6 hours, percentage of activity/stimulated control; for inhibition at 3 µg/mL: Keratinocyte, read-out: Inhibitory activity % of molecules evaluated on the production of IL8; for anti-inflammatory potentialities (IL8 production), in words: summary of Table 2 data. The format is cell-based. As for the experimental part:
In this study conducted on 96-well plates, we evaluated the activity of amino-alkene acids, on the production of interleukin 8 induced at the keratinocyte by the phorbol ester PMA and the calcium ionophore A23187.
The suspension of keratinocytes in supplemented KSFM is distributed into plates of 96 wells (3.10^4 cells/well), and incubated for 16 hours at 37° C. in an atmosphere with 5% CO2. The keratinocytes are then rinsed with PBS in order to remove the non-adherent cells and then exposed to the products to be tested included in non-supplemented KSFM (which might interfere in the assay).
The tested culture concentration is 3 μg/mL. It was retained after a preliminary test for evaluating cytotoxicity (neutral red) and it is not cytotoxic.
For each treatment, 3 wells are produced. The cells are pre-incubated for 60 min with the products to be tested and then stimulated, in parallel with negative controls without any stimulant: Phorbol Myristate Acetate (PMA) 1 μM+calcium Ionophore (A23187) 0.1 μM.
Incubation for 6 hours at 37° C. in a humid air atmosphere containing 5% of CO2.
The culture media of each of the wells are recovered, centrifuged at 3,000 rpm and stored at −80° C.
Assay of the cytokines: IL8 is assayed by an immunoenzymatic method with an ELISA kit (Immunotech).
The results are gathered in Table 2 and are expressed in percentage of activity/stimulated control.
A general note: An ELISA detects its analyte on a solid surface through an enzyme-linked reagent.

The subject of a further test is fibroblast line L929. The test is described as follows: Test of TBARS: lipid peroxidation after H2O2-Fe2+/Fe3+ stress. The format is cell-based, murine. To be noted: for inhibition at 20 pg/mL: Mus musculus, Dose = 0.02 ng/mL, L929, 16 hours pretreatment, H2O2-Fe2+/Fe3+ (200 μM-1 mM) 1 hour, TBARS, read-out: % of protection of membrane lipids, Average; for antiradical activity and protection of cell membranes, in words: L929, TBARS test, conclusion from Table 4. The text has this: In order to evaluate membrane alteration, we have measured lipid peroxidation by an assay in vitro of the complexes between lipid oxidation products and thiobarbituric acid. These complexes are called TBARS (Thiobarbituric Acid Reactive Substances) and give the name to the test: Test of TBARS.
In order to mimic a chemical oxidative stress, we treated a fibroblast line, L929, with a complex composed of hydrogen peroxide (H2O2) and of iron (Fe^2+/Fe^3+) thereby regenerating Fenton's reaction, source of FORs and more particularly of hydroxyl radicals)(OH^0) (D. A. Vessey et al., 1992):
The products were evaluated on the murine fibroblast line L929. The cells were pretreated with the different concentrations of products for 16 hours and were then stimulated with the complex H2O2—Fe^2+/Fe^3+ (200 μM-1 mM) for 1 hour.
Mother solutions: 100 mg/mL, ethanol, 4° C. Final solutions: 0.02 ng/mL.
Peroxidation of membrane lipids is analyzed by measuring the TBARS (Procedure Ref. PL No. 2, according to Morlière et al., 1991).
In an acid medium, at 95° C., complexes noted as TBARS for Thio Barbituric Acid Reactive Substance are formed, between the lipid oxidation products (malonic dialdehyde or MDA) and thiobarbituric acid (TBA) which may be assayed by fluorescence relatively to a standard range with MDA. The dosage of the TBARS is then expressed in pmol/μg of proteins. The proteins and the TBARS are assayed in the intracellular medium.
From the calculation of the TBARS in pmol/μg of proteins, we calculated the protective efficiency of different products against oxidation of membrane lipids.
Seven independent experiments were conducted. During these experiments, various compounds were evaluated (with the test, it is not possible to evaluate more than 10 molecules at the same time). The compounds which were evaluated several times were selected according to the results obtained in the other test also measuring antiradical activity (test for assaying oxygen active species, OASes).

Entries after “also recorded” stand apart in the source; their conditions may differ.

Turning to `Cl.NCCC/C=C/C(=O)O` [Compound No. 1, (E)-6-amino-hex-2-enoic acid], in the test on production of IL8, the “Inhibitory activity % of molecules evaluated on the production of IL8” value (“Inhibitory activity %” for short) is listed as “~”. For the same compound, the inhibition at 20 pg/mL in the test on fibroblast line L929 was determined as 13.4%.
For `NCCC/C=C(/F)C(=O)O` [Compound No. 2, (E)-6-amino-2-fluoro-hex-2-enoic acid], the “Inhibitory activity %” value in the test with production of IL8 is on record as “~”. Besides, in the test with fibroblast line L929, the inhibition at 20 pg/mL stood at 7.63%.
As for `Cl.NCCCC/C=C/C(=O)O` [Compound No. 4, (E)-7-amino-hept-2-enoic acid], the “Inhibitory activity %” value in the test on production of IL8 is reported as “~”. The inhibition at 20 pg/mL with fibroblast line L929 came to 8.75%.
With `NCCCCC=C(F)C(=O)O` [Compound No. 5, (Z+E)-7-amino-2-fluoro-hept-2-enoic acid], the inhibition at 3 µg/mL with production of IL8 is less than 0%. Besides, in the test with fibroblast line L929, the “antiradical activity and protection of cell membranes, in words” value (“antiradical activity and protection” below) is “significant antiradical activity”; the inhibition at 20 pg/mL came out at 36.3%.
As for `Cl.NCCCCC/C=C/C(=O)O` [Compound No. 7, (E)-8-amino-oct-2-enoic acid], the “Inhibitory activity %” value in the test on production of IL8 is on record as “~”. Also, in the test with fibroblast line L929, the “antiradical activity and protection” value is recorded as “significant antiradical activity; also recorded: most significant antiradical activity”; the inhibition at 20 pg/mL is 48.3%.
In the case of `Cl.NCCCCCC/C=C/C(=O)O` [Compound No. 8, (E)-9-amino-non-2-enoic acid], the inhibition at 3 µg/mL in the test on production of IL8 is 14%. In the test on fibroblast line L929, the “antiradical activity and protection” value is reported as “significant antiradical activity; also recorded: most significant antiradical activity”; the inhibition at 20 pg/mL was found to be 56.6%.
Take `Cl.NCCCCCCC=C(F)C(=O)O` [Compound No. 9, 9-amino-2-fluoro-non-2-enoic acid]: in the test on production of IL8, the inhibition at 3 µg/mL was determined as 20% and the “anti-inflammatory potentialities (IL8 production), in words” value is listed as “anti-inflammatory potentialities”. For the same compound, in the test on fibroblast line L929, the “antiradical activity and protection” value is given as “significant antiradical activity”; the inhibition at 20 pg/mL was 27.5%.
For the compound `Cl.NCCCCCCCCCCCC=C(F)C(=O)O` [Compound No. 10, 14-amino-2-fluoro-tetradec-2-enoic acid], the inhibition at 3 µg/mL in the test on production of IL8 is 8%. Besides, in the test with fibroblast line L929, the “antiradical activity and protection” value is listed as “significant antiradical activity”; the inhibition at 20 pg/mL was found to be 23.9%.
Consider `Cl.NCCCCCCCCCCC/C=C/C(=O)O` [Compound No. 11, (E)-14-amino-tetradec-2-enoic acid], for which, in the test with production of IL8, the inhibition at 3 µg/mL worked out at 22% and the “anti-inflammatory potentialities (IL8 production), in words” value was “anti-inflammatory potentialities”. In the test with fibroblast line L929, the inhibition at 20 pg/mL was -26.3%.
Turning to `NCCC/C=C(\F)C(=O)O` [compound 3, (Z)-6-amino-2-fluoro-hex-2-enoic acid], the “Inhibitory activity %” value in the test on production of IL8 is given as “~”. In the test on fibroblast line L929, the inhibition at 20 pg/mL was -4%.
Regarding `NCCCC/C=C(\F)C(=O)O` [compound 6, (Z)-7-amino-2-fluoro-hept-2-enoic acid], the inhibition at 3 µg/mL with production of IL8 is less than 0%. Moreover, in the test with fibroblast line L929, the “antiradical activity and protection” value was “significant antiradical activity; also recorded: most significant antiradical activity”; the inhibition at 20 pg/mL is 49.8%.

For the origin of these results see patent publication US20100240754A1, “UNSATURATED FATTY AMINO ACID DERIVATIVES AND USE THEREOF IN DERMAL COSMETOLOGY” (Pierre Fabre Demo-Cosmetique, priority 2007, published 2010).
